In ChEMBL document CHEMBL1201862, “PubChem BioAssay data set” (2004):
The source made the active and inactive calls.

How the values were obtained:
[1] = Luminescence Cell-Based Dose Response HTS to Identify Activators of Luciferase Translation or Activity in H4 […] Cells. [Related pubchem assays: 1829 (Project Summary), 1814 (Primary HTS)]; type: functional
[2] = Luminescence Cell-Based Dose Response to Identify Activators of 5'UTR Stem-Loop Driven Prion Protein mRNA Translation in H4-C Neuroglioblastoma Cells. [Related pubchem assays: 1829 (Project Summary), 1814 (Primary HTS)]; type: functional
[3] = Luminescence Cell-Based Dose Response to Identify Activators of Luciferase Translation or Activity in H4-C Neuroglioblastoma Cells. [Related pubchem assays: 1829 (Project Summary), 1814 (Primary HTS)]; type: functional
H4 = assay: Luminescence Cell-Based Dose Response HTS to Identify Activators of 5'UTR Stem-Loop Driven Prion Protein mRNA Translation in H4 Neuroglioblastoma Cells. [Related pubchem assays: 1829 (Project Summary), 1814 (Primary HTS)]; type: functional; conditions: Homo sapiens
[4] = Luminescence Cell-Based Dose Confirmation to Identify Activators of 5'UTR Stem-Loop Driven Alpha-Synuclein mRNA Translation in H4 Neuroglioblastoma Cells. [Related pubchem assays: 1829 (Project Summary), 1814 (Primary HTS)]; type: functional
[5] = THP-1 cell cytotoxicity, dose response, cytotoxicity control for Vif-APOBEC3G degradation inhibitor project, THP-1 cells (AID 1117359); type: functional; conditions: Human immunodeficiency virus 1, THP-1
[6] = target: T1, RNA-binding protein pos-1 (Caenorhabditis elegans, UniProt G5EF15); assay: inhibitors of POS-1/mex-3 RNA binding, dose response, biochemical, fluorescence polarization (AID 1964);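 note: purified POS-1 fused to maltose binding protein made in E. coli; potency of compounds blocking POS-1 binding to fluorescent RNA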
T1 sequence (G5EF15 whole entry): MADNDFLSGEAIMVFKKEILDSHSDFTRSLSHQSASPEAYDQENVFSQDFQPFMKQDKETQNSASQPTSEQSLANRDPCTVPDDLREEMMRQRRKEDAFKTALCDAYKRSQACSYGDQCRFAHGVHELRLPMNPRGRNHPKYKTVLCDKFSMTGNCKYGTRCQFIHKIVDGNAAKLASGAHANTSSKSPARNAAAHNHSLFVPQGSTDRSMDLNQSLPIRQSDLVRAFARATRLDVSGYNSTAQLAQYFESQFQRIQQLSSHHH

[7] = Luminescence Cell-Based Dose Retest to Confirm Inhibitors of Cancer Stem Cells. [Related pubchem assays (depositor defined):AID2717, AID2721]; type: functional; conditions: Homo sapiens
[8] = target: 26S proteasome non-ATPase regulatory subunit 14 (Homo sapiens, UniProt O00487); assay: inhibition of proteasome subunit RPN11 – biochemical, fluorescence polarization, uHTS hits, confirmation (AID 602368); type: functional
Chain of 26S proteasome non-ATPase regulatory subunit 14 (O00487 whole entry): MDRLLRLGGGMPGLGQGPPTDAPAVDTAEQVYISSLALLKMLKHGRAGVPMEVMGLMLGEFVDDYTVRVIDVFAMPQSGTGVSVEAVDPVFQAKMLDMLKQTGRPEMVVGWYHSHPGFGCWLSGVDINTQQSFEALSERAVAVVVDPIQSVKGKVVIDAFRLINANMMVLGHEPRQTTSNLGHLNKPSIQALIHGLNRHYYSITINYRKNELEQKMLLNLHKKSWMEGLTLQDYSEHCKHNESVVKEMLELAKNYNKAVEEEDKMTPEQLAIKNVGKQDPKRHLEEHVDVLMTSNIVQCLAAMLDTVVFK

[9] = cytotoxicity in HMLE control line with eGFP shRNA, dose response, counter-screen for HMLE_sh_ECad selective toxicity project, cell-based, HMLE_sh_eGFP, luminescence (AID 463074); type: functional, Homo sapiens;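 note: HMLE human mammary epithelial cells expressing control shRNA against eGFP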
[10] = inhibitors of Vif binding to APOBEC3G peptide, primary screen, biochemical, TR-FRET, GST-Vif 1-94, biotin-A3G peptide, dose response retest (AID 1117319); type: functional;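 note: TR-FRET signal of purified GST-Vif binding a biotinylated A3G peptide; inhibitors lower the FRET signal by blocking Vif and A3G binding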
Prothrombin = Prothrombin (Bos taurus, UniProt P00735); assay: thrombin inhibition, dose response, biochemical, fluorescence polarization, uHTS hits (AID 602369); type: functional
[11] = target: 72 kDa type IV collagenase (Homo sapiens, UniProt P08253); assay: Dose Response validation of uHTS RPN11 inhibitor hits using a MMP-2 Fluorescence assay.; type: functional
Chain of 72 kDa type IV collagenase (P08253 whole entry): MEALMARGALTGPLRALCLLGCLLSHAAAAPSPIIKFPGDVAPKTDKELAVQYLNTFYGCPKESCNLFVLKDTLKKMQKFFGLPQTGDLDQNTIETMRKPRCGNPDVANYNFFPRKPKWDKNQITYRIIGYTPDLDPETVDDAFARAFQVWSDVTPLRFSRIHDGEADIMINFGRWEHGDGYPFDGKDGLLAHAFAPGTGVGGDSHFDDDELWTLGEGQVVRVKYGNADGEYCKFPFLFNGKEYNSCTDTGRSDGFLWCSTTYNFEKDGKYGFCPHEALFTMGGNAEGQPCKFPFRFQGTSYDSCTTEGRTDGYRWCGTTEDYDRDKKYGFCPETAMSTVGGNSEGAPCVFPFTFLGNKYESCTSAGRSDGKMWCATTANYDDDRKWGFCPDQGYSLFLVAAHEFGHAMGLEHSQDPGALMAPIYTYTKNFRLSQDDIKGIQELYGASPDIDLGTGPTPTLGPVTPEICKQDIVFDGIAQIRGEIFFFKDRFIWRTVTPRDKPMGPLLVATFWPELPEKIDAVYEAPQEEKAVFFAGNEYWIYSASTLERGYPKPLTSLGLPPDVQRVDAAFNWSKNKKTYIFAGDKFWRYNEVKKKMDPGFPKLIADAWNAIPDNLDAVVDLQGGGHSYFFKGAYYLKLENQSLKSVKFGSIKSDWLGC

[12] = target: T2, Zinc finger protein mex-5 (Caenorhabditis elegans, UniProt Q9XUB2); assay: MEX-5/TCR-2 RNA interaction inhibitors, dose response, biochemical, C. elegans, fluorescence polarization (AID 1960)
T2 sequence (Q9XUB2 whole entry): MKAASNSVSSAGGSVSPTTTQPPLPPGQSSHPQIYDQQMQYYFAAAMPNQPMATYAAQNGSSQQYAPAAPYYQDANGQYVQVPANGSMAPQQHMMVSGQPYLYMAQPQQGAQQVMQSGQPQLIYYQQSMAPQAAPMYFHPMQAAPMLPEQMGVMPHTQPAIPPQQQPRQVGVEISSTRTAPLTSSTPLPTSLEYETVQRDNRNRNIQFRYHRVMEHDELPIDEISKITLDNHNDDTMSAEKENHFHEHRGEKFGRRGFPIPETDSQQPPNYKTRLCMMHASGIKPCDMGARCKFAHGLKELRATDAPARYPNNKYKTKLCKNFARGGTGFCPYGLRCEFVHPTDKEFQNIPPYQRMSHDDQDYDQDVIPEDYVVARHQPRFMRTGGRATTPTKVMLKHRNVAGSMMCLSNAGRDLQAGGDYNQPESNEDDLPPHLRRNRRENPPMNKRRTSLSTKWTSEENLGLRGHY

[13] = Luminescence Cell-Based Dose Confirmation HTS to Identify Activators of 5'UTR Stem-Loop Driven Alpha-Synuclein mRNA Translation in H4 Neuroglioblastoma Cells. [Related pubchem assays: 1829 (Project Summary), 1814 (Primary HTS)]; type: functional
[14] = cytotoxicity toward Colo320 cells – cell-based, CellTiter-Glo luminescence, IC50, dose response (AID 1117334); type: functional; conditions: COLO 320
[15] = CellTiter-Glo luminescent dose response of DLD-1 viability loss (AID 1117352); type: functional
[16] = HeLa 4N DNA content increase, dose response, cell-based, IC50 (AID 1117351); type: functional
[17] = HeLa 2N DNA content increase, dose response, cell-based, IC50 (AID 1117349); type: functional
[18] = cytotoxicity toward HT-29 cells – cell-based, CellTiter-Glo luminescence, IC50, dose response (AID 1117330); type: functional
[19] = SNU-C1 cell viability reduction, dose response, CellTiter-Glo luminescence (AID 1117323); type: functional, cell-based
[20] = Concentration-dependent survival of SW480 colon cancer line, luminescence detection with CellTiter-Glo, half-maximal inhibitory concentration (AID 1117338); type: functional
[21] = RKO cell viability reduction, dose response, CellTiter-Glo luminescence (AID 1117322); type: functional
[22] = growth suppression of beta-catenin-knockout colon cells, dose response, cell-based, HCT116, human colon tumor (AID 1045); type: functional;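 note: HCT116 colon tumor cells with beta catenin knocked out; cells exposed to compound for 60 hours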
[23] = target: Dual specificity tyrosine-phosphorylation-regulated kinase 1A (Rattus norvegicus, UniProt Q63470); type: biochemical, Homo sapiens
[24] = growth suppression of PTEN-null colon cells, dose response, cell-based, HCT116 PTEN knockout (AID 1047); type: functional;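 note: HCT116 colon tumor cells with PTEN knocked out; cells exposed to compound for 60 hours before readout; potency for loss of cell viability measured by luminescence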
[25] = target: T3, DNA repair protein RAD52 homolog (Homo sapiens, UniProt P43351); type: functional, biochemical
T3 sequence (P43351 whole entry): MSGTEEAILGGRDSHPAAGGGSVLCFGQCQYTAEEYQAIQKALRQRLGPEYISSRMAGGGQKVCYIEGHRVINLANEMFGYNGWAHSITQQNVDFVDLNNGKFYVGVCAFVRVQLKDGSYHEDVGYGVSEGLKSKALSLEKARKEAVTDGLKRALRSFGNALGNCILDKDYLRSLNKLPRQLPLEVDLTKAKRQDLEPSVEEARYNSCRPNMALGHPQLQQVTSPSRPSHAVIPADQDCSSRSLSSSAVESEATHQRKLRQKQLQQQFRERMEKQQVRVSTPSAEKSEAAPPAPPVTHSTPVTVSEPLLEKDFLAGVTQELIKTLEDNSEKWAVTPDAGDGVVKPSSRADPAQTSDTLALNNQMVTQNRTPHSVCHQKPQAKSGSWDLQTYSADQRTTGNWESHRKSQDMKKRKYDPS

[26] = cytotoxicity in HPDE-C7 cells, cell-based, fluorescence, HTS (AID 430); type: functional; conditions: Homo sapiens
[27] = cytotoxicity in KRAS-transformed pancreatic duct cells, primary screen, cell-based, fluorescence, HTS (AID 431); type: functional; conditions: Homo sapiens;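 note: cell line used: HPDE-C7K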
[28] = HEp-2 cell cytotoxicity, dose response, cytotoxicity control for RSV inhibitor project, HTS (AID 2410); type: functional; conditions: human respiratory syncytial virus
Bcl-2-like protein 1 = Bcl-2-like protein 1 (Homo sapiens, UniProt Q07817); assay: BCL-XL inhibitors, dose response, selectivity assay for MCL1 inhibitor project, biochemical, fluorescence polarization, 1536-well (AID 2218)
Chain of Bcl-2-like protein 1 (Q07817 whole entry): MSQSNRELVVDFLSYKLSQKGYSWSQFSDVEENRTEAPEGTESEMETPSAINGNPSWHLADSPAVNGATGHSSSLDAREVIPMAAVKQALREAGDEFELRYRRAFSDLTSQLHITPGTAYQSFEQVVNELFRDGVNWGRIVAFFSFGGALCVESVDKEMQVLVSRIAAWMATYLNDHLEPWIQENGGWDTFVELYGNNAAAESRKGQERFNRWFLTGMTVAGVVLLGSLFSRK

[29] = target: Induced myeloid leukemia cell differentiation protein Mcl-1 (Homo sapiens, UniProt Q07820); assay: MCL1-BIM BH3 interaction inhibitors, dose response, biochemical, fluorescence polarization, BIM-BH3 peptide, 1536-well (AID 2217)
Chain of Induced myeloid leukemia cell differentiation protein Mcl-1 (Q07820 whole entry): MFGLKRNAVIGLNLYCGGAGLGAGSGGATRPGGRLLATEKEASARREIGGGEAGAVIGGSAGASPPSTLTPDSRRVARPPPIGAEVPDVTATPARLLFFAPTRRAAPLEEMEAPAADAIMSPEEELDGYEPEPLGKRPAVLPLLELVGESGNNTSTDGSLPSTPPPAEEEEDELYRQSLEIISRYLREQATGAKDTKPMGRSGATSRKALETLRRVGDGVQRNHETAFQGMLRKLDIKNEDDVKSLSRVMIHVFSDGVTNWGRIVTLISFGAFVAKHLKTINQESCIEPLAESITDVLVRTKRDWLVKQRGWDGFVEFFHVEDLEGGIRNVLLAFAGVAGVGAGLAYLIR

[30] = target: T4, Tyrosine-protein phosphatase non-receptor type 7 (Homo sapiens, UniProt P35236); assay: inhibitors of human HePTP phosphatase, […], biochemical, absorbance, leukemia target (AID 521); type: functional
T4 sequence (P35236 whole entry): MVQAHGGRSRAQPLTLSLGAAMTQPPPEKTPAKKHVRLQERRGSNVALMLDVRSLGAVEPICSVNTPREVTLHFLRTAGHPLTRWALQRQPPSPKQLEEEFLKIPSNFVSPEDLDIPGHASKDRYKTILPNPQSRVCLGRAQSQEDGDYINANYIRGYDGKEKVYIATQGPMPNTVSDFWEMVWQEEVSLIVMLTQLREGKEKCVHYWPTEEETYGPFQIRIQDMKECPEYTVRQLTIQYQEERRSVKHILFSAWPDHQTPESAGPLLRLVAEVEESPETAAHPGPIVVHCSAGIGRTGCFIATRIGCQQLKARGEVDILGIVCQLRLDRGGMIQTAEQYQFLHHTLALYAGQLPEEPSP

Estrogen receptor beta [31] = target: T5, Estrogen receptor beta (Homo sapiens, UniProt Q92731);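 note: recombinant ER-beta bound to coactivator SRC1 peptide in presence of estradiol agonist; inhibitors block coactivator peptide binding and lower the FRET signal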
T5 sequence (Q92731 whole entry, the tested form may be a part): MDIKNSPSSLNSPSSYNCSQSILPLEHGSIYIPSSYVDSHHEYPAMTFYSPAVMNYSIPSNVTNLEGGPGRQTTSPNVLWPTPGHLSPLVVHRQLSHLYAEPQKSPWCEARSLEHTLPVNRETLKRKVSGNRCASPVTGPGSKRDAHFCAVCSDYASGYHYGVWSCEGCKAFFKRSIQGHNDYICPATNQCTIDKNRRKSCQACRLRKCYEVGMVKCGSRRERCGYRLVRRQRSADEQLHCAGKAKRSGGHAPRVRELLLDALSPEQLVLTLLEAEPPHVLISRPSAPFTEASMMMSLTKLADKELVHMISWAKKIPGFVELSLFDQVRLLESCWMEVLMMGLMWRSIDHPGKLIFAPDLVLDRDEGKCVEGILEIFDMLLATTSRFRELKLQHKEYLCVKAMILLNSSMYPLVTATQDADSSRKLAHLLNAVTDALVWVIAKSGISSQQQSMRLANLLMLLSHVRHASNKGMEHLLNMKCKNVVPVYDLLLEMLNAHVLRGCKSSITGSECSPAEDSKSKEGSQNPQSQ

[32] = target: T6, Carboxy-terminal domain RNA polymerase II polypeptide A small phosphatase 1 (Homo sapiens, UniProt Q9GZU7); assay: inhibitors of CTDSP1, concentration-response testing, biochemical assay, absorbance-based, actives from ultra-high-throughput screening (AID 540297); type: functional
T6 sequence (Q9GZU7 whole entry): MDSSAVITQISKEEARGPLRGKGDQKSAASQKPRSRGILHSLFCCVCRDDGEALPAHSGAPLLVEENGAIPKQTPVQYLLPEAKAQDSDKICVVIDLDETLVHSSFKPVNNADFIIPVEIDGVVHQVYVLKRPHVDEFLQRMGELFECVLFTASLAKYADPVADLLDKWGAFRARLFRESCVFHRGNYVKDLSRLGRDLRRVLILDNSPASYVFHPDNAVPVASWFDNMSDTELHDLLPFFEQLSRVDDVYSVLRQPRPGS

Estrogen receptor beta [33] = target: T5, Estrogen receptor beta; assay: ERβ–SRC-3 coactivator interaction inhibitors, confirmation, orthogonal assay, biochemical, ELISA, streptavidin-HRP readout (AID 1060)

CC(C)Cc1ccc(/C=C/C(=O)N2CCOCC2)cc1
EC50 [1]: < 0.1 µM (inconclusive) | EC50 [2]: 0.682 µM (active) | EC50 [3]: 0.374 µM (active) | EC50 (H4): 0.843 µM (active) | EC50 [4]: 0.25 µM (active)

COc1cc(NC(=O)c2cc3nc(C)cc(C)n3n2)c(OC)cc1Cl
EC50 [1]: 0.278 µM (active) | EC50 [2]: 0.389 µM (active) | EC50 [3]: 0.323 µM (active) | EC50 (H4): < 0.1 µM (active) | EC50 [4]: 0.392 µM (active)

CCOc1ccccc1N1C(=O)NC(=O)/C(=C\Nc2ccc(N(CC)CC)cc2)C1=O
CC50 [5]: 26 µM (active) | EC50 [6]: > 300 µM (not active) | AC50 [7]: 40.9 µM (active) | IC50 [8]: 18.3 µM (active) | AC50 [9]: 51 µM (active) | IC50 [10]: > 57.5 µM (active) | IC50 (Prothrombin): 13.4 µM (active) | IC50 [11]: > 100 µM (inactive) | EC50 [12]: > 300 µM (inconclusive)

O=S(=O)(Nc1ccc(N2CCOCC2)cc1)c1ccccc1
IC50 [10]: > 100 µM (active)

CCCn1c(O)nnc1Sc1nnnn1-c1ccccc1
EC50 [1]: 6.75 µM (active) | EC50 [13]: 40.1 µM (active) | IC50 [10]: > 100 µM (active) | EC50 (H4): > 120 µM (not active)

O=c1[nH]cc(F)c(=O)[nH]1 [FLUOROURACIL]
IC50 [14]: > 20 µM (inactive) | IC50 [15]: > 20 µM (inactive) | IC50 [16]: > 10 µM (inactive) | IC50 [17]: > 10 µM (inactive) | IC50 [18]: > 20 µM (inactive) | IC50 [19]: > 20 µM (inactive) | IC50 [20]: > 20 µM (inactive) | IC50 [21]: > 20 µM (inactive)

CCOC(=O)c1s/c(=N\C(=O)/C=C/c2cccs2)n(C)c1C
EC50 [1]: < 0.1 µM (inconclusive) | EC50 [2]: 2.23 µM (active) | EC50 [3]: > 12 µM (not active) | EC50 (H4): 1.08 µM (active) | EC50 [4]: 0.315 µM (active)

CN1CCN(c2cc3c(c4c2[nH]c2ccccc24)C(=O)CC(C)(C)C3)CC1
EC50 [22]: 10.4 µM (active) | AC50 [23]: 7.77 µM (active) | EC50 [24]: 11.4 µM (active) | AC50 [25]: 9.48 µM (active) | EC50 [26]: 13.2 µM (active) | EC50 [27]: 12.9 µM (active) | CC50 [28]: 15.6 µM (active)

O=C(Cn1cnc2sc(-c3ccccc3)cc2c1=O)NCc1ccco1
IC50 (Bcl-2-like protein 1): > 109 µM (not active) | IC50 [29]: 5.16 µM (active)

CC(C)(C)OC(=O)c1c(N)n(Cc2ccco2)c2nc3ccccc3nc12
IC50 [30]: > 100 µM (not active)

COc1ccccc1N1CCN(S(=O)(=O)c2c[nH]cn2)CC1
IC50 [30]: > 100 µM (not active)

O=C(Nc1sc2c(c1C(=O)O)CCC2)c1ccccc1
IC50 (Estrogen receptor beta [31]): 6.88 µM (active) | IC50 [32]: 12.1 µM (active) | IC50 (Estrogen receptor beta [33]): > 109 µM (not active)
